{"source": "patent US20100261666A1", "about": "“COMPOSITIONS AND METHODS FOR THE TREATMENT OF MYOCARDIAL DYSFUNCTION ASSOCIATED WITH SIRS OR SEPSIS” (THE BOARD OF TRUSTEES OF THE UNIVERSITY OF ILLINOIS, priority 2009, published 2010)", "key": {"[1]": {"tested_on": "rat isolated hearts", "test": "Langendorff rat isolated heart procedure: left ventricular function and coronary flow", "type": "in vivo", "details": "for Coronary flow Baseline / Coronary flow 30 min / Coronary flow 60 min / Coronary flow 90 min / Coronary flow 120 min / Coronary flow 150 min: mean ± SEM", "protocol": "Male Sprague Dawley, virus-free rats (Harlan) were used in each of the examples presented herein. After arrival and a brief acclimation (72 hours minimum), animals were randomized into control or experimental groups. The control and experimental protocols (Table 1) and experimental group treatments (Table 2) are described below.\nRat isolated heart experiments were performed via Langendorff method. […] CON hearts received vehicle (IP sterile water). […] Heparin was allowed to circulate for 60 seconds at which time a thoracotomy was performed to expose the heart. The heart was quickly removed, placed in ice cold Krebs-Ringers bicarbonate buffer (KRB, described below) and weighed. The ascending aorta was rapidly cannulated and the heart was attached, via the cannula, to the perfusion apparatus. The hearts were perfused with a modified KRB containing (102 mM NaCl, 4.75 mM KCl, 1.20 mM KH2PO4, 1.18 mM MgSO4, 22.75 mM NaHCO3, 11.50 mM Glucose, 4.96 mM Na-Pyruvate, 5.40 mM Na-Fumarate and 1 mM CaCl2), at a temperature of 37.0° C., and pH 7.4 as maintained by vigorous bubbling with 95%/5% O2/CO2.\nAt all times, hearts were perfused with KRB at a pressure of 72-78 mmHg set by the height of the water-jacketed reservoir. The left atrium of the heart was then removed, just above the left atrio-ventricular valve. A latex balloon was used to measure left ventricular pressure as an index of cardiac performance. The balloon was constructed by filling the reservoir tip of a latex condom with degassed water. PE-50 tubing, pre-filled with degassed water and attached to a stopcock/Hamilton screw-top syringe assembly, was flanged and placed into the tip of the condom. Surgical silk (5-0) was used to gather the condom tip around the flanged end of the tubing and form a seal, at which time the excess latex was removed.\nThe balloon/stopcock assembly was attached to a pressure transducer (Spectramed-Statham) and inserted into the left ventricle to record cardiac performance data via Windaq (DATAQ, CA). Two platinum electrodes, connected to a electrical stimulator (Grass Model 92C), were placed at the lateral edges of the right atria in order to pace the heart at 300 BPM using a voltage 10% greater than that required to capture rhythm. The volume in the latex balloon was increased to produce a left ventricular diastolic pressure (LVdiaP) of 10.0 mmHg.\nThe heart was then perfused normally for 30 minutes, a period designated as the equilibration phase. During this phase of perfusion hearts had to maintain a LVdiaP of 10.0±2.0 mmHg to be included in the study. At the end of thirty minutes, baseline measurements of coronary flow and left ventricular pressure were made. This time point was designated as 0 minutes. At this time, hearts receiving LPS (10 μg/mL/min) were infused via injection port/stop cock assembly, into the KRB perfusion stream, just above the aortic cannula for a total infusion time of 60 minutes. Hearts not receiving LPS were infused with vehicle (sterile water, 1.25% coronary flow (mL)·min). At 60 minutes, infusion was halted and normal KRB perfusion continued for 90 minutes (total experimental time post-equilibration=150 minutes).\nMeasurements of coronary flow and left ventricular pressure were taken every 30 minutes starting at 0 minutes. At the termination of the experiment, the left ventricle was rapidly excised from the whole heart, flash frozen in liquid nitrogen and stored at −80.0° C. for further analysis.\nStatistical analysis was performed on data generated from these experimental protocols using a one-way analysis of variance (one-way ANOVA) with pair wise comparisons (Fisher Least Significant Difference test (LSD)). Data is presented herein as mean±standard error of the mean (SEM).\nThe Fisher LSD was used to determine whether 30 and 150 min values differed from baseline values. In addition, changes from baseline values (e.g., 30 or 150 minute value−respective baseline value) were compared among groups."}, "[2]": {"tested_on": "TNF-α", "test": "Real time PCR, left ventricular TNF-α mRNA expression", "type": "in vivo, rat", "details": "LPS infusion", "protocol": "Total RNA was isolated from left ventricular tissue using the SV Total Isolation System (Promega Corp., Madison, Wis.). Isolation was performed according to manufacturer instructions and followed by DNAse treatment to eliminate residual genomic DNA contamination. RNA integrity was determined by loading 1.0 μg of total RNA isolate from each sample onto a 1.0% agarose gel and staining with ethidium bromide to visualize the 18 and 28s RNA bands. The amount of RNA recovered was determined using the Ribogreen RNA Quantification Kit (Molecular Probes, Eugene, Oreg.). […]\nSpecific primer sequences, GenBank accession numbers, Sequence Identifiers, and product sizes are disclosed in Table 5. […] For real-time PCRs, SYBR PCR Master Mix (Bio-Rad Laboratories, Hercules, Calif.) was used, and thermocycling and fluorescence detection was performed using a Stratagene Mx3000p real-time PCR machine.\nAfter confirmation of primer efficiency and specificity, the concentrations of purified products generated by standard PCR were determined using Molecular Probe's Picogreen DNA quantification kit, and PCR products were serially diluted to obtain standards containing 10^1, 10^2, 10^3, 10^4, 10^5, and 10^6 copies of synthetic template. […]"}, "[3]": {"tested_on": "ADA1", "test": "Real time PCR, left ventricular ADA1 mRNA expression", "type": "in vivo, rat", "protocol": "Total RNA was isolated from left ventricular tissue using the SV Total Isolation System (Promega Corp., Madison, Wis.). Isolation was performed according to manufacturer instructions and followed by DNAse treatment to eliminate residual genomic DNA contamination. RNA integrity was determined by loading 1.0 μg of total RNA isolate from each sample onto a 1.0% agarose gel and staining with ethidium bromide to visualize the 18 and 28s RNA bands. The amount of RNA recovered was determined using the Ribogreen RNA Quantification Kit (Molecular Probes, Eugene, Oreg.). 1 μg of total RNA was reverse transcribed in a […] using random hexamer primers with enzyme and buffers supplied in the cDNA First Strand Synthesis kit (MRI Fermentas, Hanover, Md.). First strand cDNA was treated with ribonuclease H to remove residual RNA.\nReal time PCR (qPCR) was performed to measure RNA transcripts for left ventricular TNF-α and ADA1. Three housekeeping genes were selected as follows to produce an intergroup correction factor for target transcripts: Cyclophilin A, hypoxanthine-guanine physphoribosyltransferase (HPRT), and β-actin. Primers were selected using Primer 3 software (Rosen and Skaletsky, Whitehead Institute for Biomedical Research) with the rat genomic sequences for TNF gene, ADA gene, HPRT gene, β-actin gene, and Cyclophilin gene as templates. BLAST (National Center for Biotechnology Information) searches were used to verify that the selected primers were specific for the designated target.\nSpecific primer sequences, GenBank accession numbers, Sequence Identifiers, and product sizes are disclosed in Table 5. Primers were used in a standard PCR with the 2× Master Mix PCR reagent (MRI Fermentas) and cDNA from the tissue of interest as a template. The thermocycling profile consisted of one cycle of 95° C. for 10 minutes, followed by 41 cycles of 95° C. for 1 minute, 61° C. for 1 minute, and 72° C. for 1 minute and a final cycle of 72° C. for 10 minutes. Products were run on a 1.0% agarose gel and stained with ethidium bromide to confirm that only one band was amplified and that no primer dimers were present. PCR products were then column-purified (QIAGEN, Valencia, Calif.) and sequenced to confirm target specificity. For real-time PCRs, SYBR PCR Master Mix (Bio-Rad Laboratories, Hercules, Calif.) was used, and thermocycling and fluorescence detection was performed using a Stratagene Mx3000p real-time PCR machine.\nStandards were then amplified by real-time PCR, and standard curves were generated using Stratagene Mx3000P software. […]\nA housekeeping gene was selected for normalization of the real-time PCR data for the TNF-α and ADA1 transcripts. Three potential gene (mRNA) products were analyzed for this purpose: CYC, β-actin and HPRT."}, "[4]": {"biological_target": "ADA (Homo sapiens, UniProt P00813)", "sequence (P00813 whole entry, species assumed)": "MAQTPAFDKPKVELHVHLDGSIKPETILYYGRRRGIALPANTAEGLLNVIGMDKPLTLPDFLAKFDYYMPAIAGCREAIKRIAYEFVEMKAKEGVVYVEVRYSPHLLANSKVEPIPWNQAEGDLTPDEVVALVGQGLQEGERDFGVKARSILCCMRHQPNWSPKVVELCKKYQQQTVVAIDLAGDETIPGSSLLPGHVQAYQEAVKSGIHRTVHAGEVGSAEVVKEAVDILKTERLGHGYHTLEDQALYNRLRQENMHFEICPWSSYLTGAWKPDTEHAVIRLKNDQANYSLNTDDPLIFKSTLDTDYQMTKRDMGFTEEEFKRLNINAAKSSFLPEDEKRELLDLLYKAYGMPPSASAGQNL", "details": "cited from earlier work"}}}
{"smiles": "Oc1ncnc2[nH]ncc12", "note": "[ALO, allopurinol]", "values": [{"measurement": "Coronary flow Baseline", "setting": "[1]; LPS infusion 10 μg/mL/min (-LPS group)", "value": "24.1 ± 1.3", "unit": "mL/min"}, {"measurement": "Coronary flow 30 min", "setting": "[1]; LPS infusion (-LPS group)", "value": "24.2 ± 1.1", "unit": "mL/min"}, {"measurement": "Coronary flow 60 min", "setting": "[1]; LPS infusion (-LPS group)", "value": "24.7 ± 1.4", "unit": "mL/min"}, {"measurement": "Coronary flow 90 min", "setting": "[1]; LPS infusion (-LPS group)", "value": "24.5 ± 1.4", "unit": "mL/min"}, {"measurement": "Coronary flow 120 min", "setting": "[1]; LPS infusion (-LPS group)", "value": "23.4 ± 1.7", "unit": "mL/min"}, {"measurement": "Coronary flow 150 min", "setting": "[1]; LPS infusion (-LPS group)", "value": "22.5 ± 1.7", "unit": "mL/min"}, {"measurement": "+dP/dt compared to respective baseline", "setting": "[1]; LPS infusion, 30 minutes", "value": "significantly greater"}, {"measurement": "LV developed pressure compared to respective baseline", "setting": "[1]; LPS infusion, 30 minutes", "value": "significantly greater"}, {"measurement": "LV diastolic pressure compared to respective baseline", "setting": "[1]; LPS infusion, 30 minutes", "value": "significantly decreased"}, {"measurement": "increase in LV developed pressure compared to LPS group", "setting": "[1]; LPS infusion, 30 minutes", "value": "of a similar magnitude"}, {"measurement": "increase in LV systolic pressure compared to LPS group", "setting": "[1]; LPS infusion, 30 minutes", "value": "of a similar magnitude"}, {"measurement": "increase in −dP/dt compared to LPS group", "setting": "[1]; LPS infusion, 30 minutes", "value": "similar"}, {"measurement": "+dP/dt compared to LPS hearts", "setting": "[1]; LPS infusion, 150 minutes", "value": "did not statistically change"}, {"measurement": "+dP/dt compared to respective baseline", "setting": "[1]; LPS infusion, 150 minutes", "value": "significantly decreased"}, {"measurement": "LV developed pressure compared to LPS hearts", "setting": "[1]; LPS infusion, 150 minutes", "value": "of a similar magnitude"}, {"measurement": "LV developed pressure compared to respective baseline", "setting": "[1]; LPS infusion, 150 minutes", "value": "significantly decreased"}, {"measurement": "LV diastolic pressure (LPS-induced increase) compared to LPS hearts", "setting": "[1]; LPS infusion, 150 minutes", "value": "attenuation"}, {"measurement": "LV systolic pressure compared to respective baseline", "setting": "[1]; LPS infusion, 150 minutes", "value": "significantly decreased"}, {"measurement": "−dP/dt compared to LPS alone / among groups", "setting": "[1]; LPS infusion, 150 minutes", "value": "did not significantly affect"}, {"measurement": "−dP/dt compared to respective baseline", "setting": "[1]; LPS infusion, 150 minutes", "value": "significantly decreased"}, {"measurement": "Coronary flow 30 min", "setting": "[1]; vehicle infusion (-CON group)", "value": "25.9 ± 1.8", "unit": "mL/min"}, {"measurement": "Coronary flow 60 min", "setting": "[1]; vehicle infusion (-CON group)", "value": "25.1 ± 1.9", "unit": "mL/min"}, {"measurement": "Coronary flow 90 min", "setting": "[1]; vehicle infusion (-CON group)", "value": "24.7 ± 1.9", "unit": "mL/min"}, {"measurement": "Coronary flow 120 min", "setting": "[1]; vehicle infusion (-CON group)", "value": "24.1 ± 1.6", "unit": "mL/min"}, {"measurement": "Coronary flow 150 min", "setting": "[1]; vehicle infusion (-CON group)", "value": "22.6 ± 1.4", "unit": "mL/min"}, {"measurement": "Coronary flow Baseline", "setting": "[1]; vehicle infusion (-CON group)", "value": "25.4 ± 2.1", "unit": "mL/min"}, {"measurement": "LV diastolic pressure compared to respective baseline", "setting": "[1]; vehicle infusion, 30 minutes", "value": "No changes"}, {"measurement": "LV developed pressure compared to respective baseline", "setting": "[1]; vehicle infusion, 150 minutes", "value": "No changes"}, {"measurement": "LV diastolic pressure compared to respective baseline", "setting": "[1]; vehicle infusion, 150 minutes", "value": "remained unchanged"}, {"measurement": "LV systolic pressure compared to respective baseline", "setting": "[1]; vehicle infusion, 150 minutes", "value": "no change"}, {"measurement": "−dP/dt compared to respective baseline", "setting": "[1]; vehicle infusion, 150 minutes", "value": "remained unchanged"}, {"measurement": "left ventricular TNF-α mRNA expression compared to LPS hearts", "setting": "[2]", "value": "significantly lower"}, {"measurement": "left ventricular ADA1 mRNA expression (copy numbers) compared to CON and LPS hearts", "setting": "[3]; LPS infusion", "value": "No significant differences"}, {"measurement": "left ventricular ADA1 mRNA expression (copy numbers) compared to CON and LPS hearts", "setting": "[3]; vehicle infusion", "value": "No significant differences"}]}
{"smiles": "OC[C@H]1O[C@@H](n2cnc3c2N=CNCC3O)C(O)[C@H]1O", "note": "(some centres unmarked) [coformycin]", "values": [{"measurement": "Ki", "setting": "[4]", "value": 10, "unit": "pM"}]}
